Measured values published in US5012004A, “Ether compounds and their production, and insecticidal and/or acaricidal compositions containing them” (priority 1987, dated 1991).
Read-outs that look alike come from different tables or passages of the source.

How the values were obtained:
Assay type in all cases: in vivo
[1] = tested on: last instar larvae of common mosquito (Culex pipiens pallens); assay: Emergence inhibition of last instar larvae of common mosquito (Test Example 3); conditions: read-out: Rate of emergence inhibition (%)
Protocol: (§1) One of Compound Nos. 1 to 38 (10 parts), polyoxyethylene styrylphenyl ether (14 parts), calcium dodecylbenzenesulfonate (6 parts), xylene (35 parts) and dimethylformamide (35 parts) are well mixed to make an emulsifiable concentrate.
An emulsifiable concentrate prepared according to Formulation Example 2 was diluted with water to make a concentration of 3.5 ppm. The dilution (100 ml) was charged in a plastic cup (each 180 ml volume), and twenty last instar larvae of common mosquito (Culex pipiens pallens) were released therein. Feeding was continued until emergence of all larvae, and the rate of emergence inhibition was observed.
The rate of emergence inhibition was determined according to the following criteria:
Rate of emergence inhibition […]
b: less than 90% to not less than 80% inhibition c: less than 80% inhibition

[2] = tested on: eggs of diamondback moth (Plutella xylostella); assay: Ovicidal test: mortality of eggs of diamondback moth on dipped radish cotyledons (Test Example 1); conditions: 72 h, read-out: Mortality (%) of the eggs
Text: Seven days after sowing, adults of diamondback moth (Plutella xylostella) were released to cotyledons of three radishes for oviposition (about 15 eggs per 1 cotyledon). […] After air-drying, the seedlings were taken into a cup made of polyethylene at the bottom of which were placed a filter paper.

[3] = tested on: female carmine spider mites (Tetranychus cinnabarinus); assay: Plant damage by female carmine spider mites on kidney bean, pot spray plus soil application (Example 4); conditions: ca. 500 ppm, 15 ml spray per pot plus 2 ml to soil, eight days thereafter
Protocol: as §1
Adults of female carmine spider mites (Tetranychus cinnabarinus) were permitted to live on leaves (10 mites per leaf) of kidney bean seven days after sowing in the pots, and the mites were kept at 25° C. in a greenhouse. After 6 days, a 200 fold dilution (ca. 500 ppm) of the emulsifiable concentrate prepared according to Formulation Example 2 was sprayed over the pots placed on a turn table at a spray volume of 15 ml per pot, and also 2 ml of the dilution were applied to the soil in each pot. Eight days thereafter, the plant damage by the mites was observed and evaluated according to the following criteria:
______________________________________
-: no material damage to leaves
+: slight damage to leaves

[4] = tested on: adults of brown rice planthopper (Nilaparvata lugens); assay: Mortality of adults of brown rice planthopper on dipped rice stems (Test Example 2); conditions: 24 h, 200 fold dilution (ca. 500 ppm), one day thereafter, two replications
Text: as §1
Stems of rice plants (about 12 cm in length) were dipped in a 200 fold dilution (ca. 500 ppm) of the emulsifiable concentrate prepared according to Formulation Example 2. After air-drying, the stems were taken into a test tube and 10 adults of brown rice planthopper (Nilaparvata lugens) were released therein.

[5] = 3.5 ppm, twenty last instar larvae, until emergence
[6] = 200 fold dilution (ca. 500 ppm), cotyledons dipped 30 seconds, three days thereafter, two replications

Structure (SMILES)	mortality at 500 µg/mL [2, 6]	Plant damage [3]	mortality at 500 µg/mL [2]	also measured
CC(C)(c1ccc(OCCF)cc1)c1ccc(OCCF)cc1 [compound 32]	100%			inhibition at 3.5 ppm [1, 5]: > 90%
FCCOc1ccc2oc3ccccc3c2c1 [Compound No. 35, 2-(2-fluoroethoxy)-dibenzofuran]	100%	-		inhibition at 3.5 ppm [1]: > 90%
Cc1cc(Cl)ccc1N=CN(C)C [B, N'-(4-chloro-2-methylphenyl)-N,N-dimethylformamidine, reference compound]		+		
FCCOc1cccc(Cl)c1 [compound 4]			100%	
Cc1ccc(OCCF)cc1 [compound 8]			100%	
FCCOc1ccc(C(F)F)cc1 [Compound No. 10, 1-difluoromethyl-4-(2-fluoroethoxy)benzene]	100%			
FCCOc1ccc(F)cc1 [Compound No. 2]			100%	
O=C(c1ccccc1)c1ccc(OCCF)cc1 [compound 36]	100%	-		
FCCOc1ccc(Cc2ccccc2)cc1 [compound 30]	100%	- ~ +		mortality at 500 µg/mL [4]: 100%
FCCOc1cccc(-c2ccccc2)c1 [compound 21]	100%	- ~ +		inhibition at 3.5 ppm [1]: > 90%
FCCOc1cccc(CBr)c1 [compound 15]			100%	
Cc1ccccc1OCCF [compound 6]			100%	
CCC(F)COc1ccc(Oc2ccccc2)cc1 (stereo not shown) [compound 28]	100%			inhibition at 3.5 ppm [1, 5]: > 90%
FCCOc1ccc(Oc2ccccc2)cc1 [Compound No. 22, 1-(2-fluoroethoxy)-4-phenoxybenzene]	100%	- ~ +		mortality at 500 µg/mL [4]: 100%; inhibition at 3.5 ppm [1]: > 90%
FCCOc1ccc2c(c1)OCO2 [compound 13]	100%			
FCCOc1ccc(Sc2ccc(OCCF)cc2)cc1 [compound 34]	100%			inhibition at 3.5 ppm [1]: > 90%
FCCOc1ccc(OC2C=CCCC2)cc1 (stereo not shown) [compound 38]	100%	-		
FCCOc1ccccc1-c1ccccc1 [Compound No. 20, 1-(2-fluoroethoxy)-2-phenylbenzene]	100%			mortality at 500 µg/mL [4]: 100%
FCCOc1ccccc1COc1ccc(Oc2ccccc2)cc1 [compound 17]	100%	-		
COc1cccc(OCCF)c1 [compound 5]			100%	

Structure (SMILES)	mortality at 500 µg/mL [2, 6]	Plant damage [3]	mortality at 500 µg/mL [2]	also measured
FCCOc1ccc(Sc2ccccc2)cc1 [compound 33]	100%	-		mortality at 500 µg/mL [4]: 100%; inhibition at 3.5 ppm [1]: > 90%
FCCOc1ccccc1 [Compound No. 1]			100%	
FCCOc1ccc(CBr)cc1 [compound 16]			100%	
FCCOc1ccc(COc2ccc(Oc3ccccc3)cc2)cc1 [compound 19]	100%			inhibition at 3.5 ppm [1, 5]: > 90%
FCCOc1ccccc1Cl [Compound No. 3]			100%	mortality at 500 µg/mL [4]: 100%
Cc1cccc(OCCF)c1 [compound 7]			100%	
CC(CF)Oc1ccc(Oc2ccccc2)cc1 (stereo not shown) [compound 26]	100%			inhibition at 3.5 ppm [1, 5]: > 90%
FCCCCOc1ccc(Oc2ccccc2)cc1 [compound 25]	100%			inhibition at 3.5 ppm [1, 5]: > 90%
FCCOc1ccccc1CBr [compound 14]			100%	
FCCOc1ccc(Oc2cc(F)cc(F)c2)cc1 [compound 24]	100%			inhibition at 3.5 ppm [1]: > 90%
FCCOc1ccc(-c2ccc(OCCF)cc2)cc1 [compound 12]			100%	
CC(C)(c1ccccc1)c1ccc(OCCF)cc1 [compound 31]	100%			
FCCOc1ccc(Oc2cccc(F)c2)cc1 [Compound No. 23, 1-(2-fluoroethoxy)-4-(3-fluorophenoxy)benzene]	100%			mortality at 500 µg/mL [4]: 100%; inhibition at 3.5 ppm [1]: > 90%
O=C1c2ccccc2-c2ccc(OCCF)cc21 [compound 37]	100%	- ~ +		
CC(F)COc1ccc(Oc2ccccc2)cc1 (stereo not shown) [compound 27]	100%			inhibition at 3.5 ppm [1, 5]: > 90%
FCCOc1ccc(OCCF)cc1 [compound 11]		- ~ +	100%	mortality at 500 µg/mL [4]: 100%; inhibition at 3.5 ppm [1]: > 90%
FCCOc1cccc(COc2ccc(Oc3ccccc3)cc2)c1 [compound 18]	100%	- ~ +		inhibition at 3.5 ppm [1, 5]: > 90%
FCCOc1ccc(OCc2ccccc2)cc1 [A, reference compound]				mortality at 500 µg/mL [4]: 0%; inhibition at 3.5 ppm [1]: 80 to 90%
FCCOc1cccc(Oc2ccccc2)c1 [compound 29]	100%			mortality at 500 µg/mL [4]: 90%
Cc1cc(Cl)ccc1OCCF [compound 9]			100%	inhibition at 3.5 ppm [1]: > 90%
